Assay results taken from US20260083122A1, “METHOD AND AGENT FOR INACTIVATING BACTERIA OR VIRUSES, AND ANTIVIRAL BASE MATERIAL USING SAME” (NISSAN MOTOR CO., LTD., priority 2022, published 2026).

Target: S-RBD-His (Omicron) (SARS-CoV-2 B.1.1.529 (Omicron) Spike RBD Protein) (Severe acute respiratory syndrome coronavirus 2, UniProt P0DTC2, E484A/G339D/G446S/G496S/K417N/N440K/N501Y/Q493R/Q498R/S371L/S373P/S375F/S477N/T478K/Y505H)

SMILES: O=[N+]([O-])[O-].O=[N+]1C2CC3CC(C2)CC1C3 [AZADO-Oxo]
- shift of fluorescence peak (binding amount between spike protein and ACE2): a certain inactivation effect was obtained
